Source: patent US20230117034A1, “PYRAZOLOTRIAZINES” (Bayer Aktiengesellschaft, priority 2019, published 2023)

Legend:
CDK9/CycT1 = target: T1, CDK9/CycT1 (Homo sapiens, UniProt P50750); test: CDK9/CycT1 high ATP kinase assay (TR-FRET, 2 mM ATP); format: biochemical; settings: 2 mM ATP (high ATP); median; read-out: CDK9/CyclinT1, 2 mM ATP (high ATP), IC50 (median)
T1 construct: Recombinant full-length His-tagged human CDK9 and CycT1; purchased Life Technologies PV4131; host or cells: insect cells
T1 sequence (P50750 whole entry): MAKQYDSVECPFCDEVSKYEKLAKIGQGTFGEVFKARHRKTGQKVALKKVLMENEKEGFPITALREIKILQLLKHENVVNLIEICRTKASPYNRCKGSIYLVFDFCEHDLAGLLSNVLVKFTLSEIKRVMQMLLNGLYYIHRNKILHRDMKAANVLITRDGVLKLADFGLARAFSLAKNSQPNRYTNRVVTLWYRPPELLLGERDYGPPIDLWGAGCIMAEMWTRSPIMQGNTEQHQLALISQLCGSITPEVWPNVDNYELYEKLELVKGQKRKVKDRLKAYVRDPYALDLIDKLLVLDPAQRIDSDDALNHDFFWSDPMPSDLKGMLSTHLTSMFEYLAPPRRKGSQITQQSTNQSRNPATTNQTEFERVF
T1 sequence (O60563 whole entry partner): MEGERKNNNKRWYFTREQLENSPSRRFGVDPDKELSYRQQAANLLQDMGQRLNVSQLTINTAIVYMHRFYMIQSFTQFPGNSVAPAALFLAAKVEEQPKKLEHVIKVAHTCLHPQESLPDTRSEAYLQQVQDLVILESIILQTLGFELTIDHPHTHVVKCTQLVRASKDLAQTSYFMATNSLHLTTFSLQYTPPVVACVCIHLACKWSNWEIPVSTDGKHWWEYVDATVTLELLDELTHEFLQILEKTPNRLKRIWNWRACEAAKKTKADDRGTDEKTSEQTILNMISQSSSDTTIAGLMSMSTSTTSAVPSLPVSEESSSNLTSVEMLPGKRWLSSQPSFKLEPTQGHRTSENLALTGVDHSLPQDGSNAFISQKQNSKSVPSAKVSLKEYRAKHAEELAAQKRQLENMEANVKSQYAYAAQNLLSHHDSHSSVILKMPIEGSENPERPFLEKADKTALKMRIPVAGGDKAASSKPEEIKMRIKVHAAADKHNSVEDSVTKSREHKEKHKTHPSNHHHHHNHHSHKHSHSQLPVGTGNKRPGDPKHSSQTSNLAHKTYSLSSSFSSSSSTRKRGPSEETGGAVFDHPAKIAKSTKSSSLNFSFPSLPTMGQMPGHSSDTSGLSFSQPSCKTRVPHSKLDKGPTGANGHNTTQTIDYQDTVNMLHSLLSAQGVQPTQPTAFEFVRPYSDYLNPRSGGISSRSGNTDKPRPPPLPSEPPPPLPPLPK
Procedure, shortened: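 Full-length His-tagged human CDK9/CycT1 (insect cell, ~0.5 μg/mL) preincubated 15 min at 22 °C with compound in Tris pH 8.0, MgCl2, DTT buffer before reaction with biotinylated peptide substrate at high ATP (2 mM).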

[1] = target: T2, CDK12 (nuclear staining in CAL-120 cells) (Homo sapiens, UniProt Q9NYV4); test: CDK12 nuclear protein level: immunofluorescence/high content analysis (CAL-120); format: cell-based; settings: for DC50: CAL-120 cells, 24 h, immunofluorescence, 50% reduction of nuclear CDK12 staining intensity, median, read-out: CDK12 degradation IF, DC50- [mol/l] (median); for (IC50 CDK12 high ATP) to (Degradation DC50 CDK12) ratio: ratio of IC50 CDK12 high ATP kinase assay to DC50 CDK12 degradation (IF, CAL-120)
T2 construct: endogenous in cells; host or cells: CAL-120 human breast cancer cells (DSMZ ACC 459)
T2 sequence (Q9NYV4 whole entry): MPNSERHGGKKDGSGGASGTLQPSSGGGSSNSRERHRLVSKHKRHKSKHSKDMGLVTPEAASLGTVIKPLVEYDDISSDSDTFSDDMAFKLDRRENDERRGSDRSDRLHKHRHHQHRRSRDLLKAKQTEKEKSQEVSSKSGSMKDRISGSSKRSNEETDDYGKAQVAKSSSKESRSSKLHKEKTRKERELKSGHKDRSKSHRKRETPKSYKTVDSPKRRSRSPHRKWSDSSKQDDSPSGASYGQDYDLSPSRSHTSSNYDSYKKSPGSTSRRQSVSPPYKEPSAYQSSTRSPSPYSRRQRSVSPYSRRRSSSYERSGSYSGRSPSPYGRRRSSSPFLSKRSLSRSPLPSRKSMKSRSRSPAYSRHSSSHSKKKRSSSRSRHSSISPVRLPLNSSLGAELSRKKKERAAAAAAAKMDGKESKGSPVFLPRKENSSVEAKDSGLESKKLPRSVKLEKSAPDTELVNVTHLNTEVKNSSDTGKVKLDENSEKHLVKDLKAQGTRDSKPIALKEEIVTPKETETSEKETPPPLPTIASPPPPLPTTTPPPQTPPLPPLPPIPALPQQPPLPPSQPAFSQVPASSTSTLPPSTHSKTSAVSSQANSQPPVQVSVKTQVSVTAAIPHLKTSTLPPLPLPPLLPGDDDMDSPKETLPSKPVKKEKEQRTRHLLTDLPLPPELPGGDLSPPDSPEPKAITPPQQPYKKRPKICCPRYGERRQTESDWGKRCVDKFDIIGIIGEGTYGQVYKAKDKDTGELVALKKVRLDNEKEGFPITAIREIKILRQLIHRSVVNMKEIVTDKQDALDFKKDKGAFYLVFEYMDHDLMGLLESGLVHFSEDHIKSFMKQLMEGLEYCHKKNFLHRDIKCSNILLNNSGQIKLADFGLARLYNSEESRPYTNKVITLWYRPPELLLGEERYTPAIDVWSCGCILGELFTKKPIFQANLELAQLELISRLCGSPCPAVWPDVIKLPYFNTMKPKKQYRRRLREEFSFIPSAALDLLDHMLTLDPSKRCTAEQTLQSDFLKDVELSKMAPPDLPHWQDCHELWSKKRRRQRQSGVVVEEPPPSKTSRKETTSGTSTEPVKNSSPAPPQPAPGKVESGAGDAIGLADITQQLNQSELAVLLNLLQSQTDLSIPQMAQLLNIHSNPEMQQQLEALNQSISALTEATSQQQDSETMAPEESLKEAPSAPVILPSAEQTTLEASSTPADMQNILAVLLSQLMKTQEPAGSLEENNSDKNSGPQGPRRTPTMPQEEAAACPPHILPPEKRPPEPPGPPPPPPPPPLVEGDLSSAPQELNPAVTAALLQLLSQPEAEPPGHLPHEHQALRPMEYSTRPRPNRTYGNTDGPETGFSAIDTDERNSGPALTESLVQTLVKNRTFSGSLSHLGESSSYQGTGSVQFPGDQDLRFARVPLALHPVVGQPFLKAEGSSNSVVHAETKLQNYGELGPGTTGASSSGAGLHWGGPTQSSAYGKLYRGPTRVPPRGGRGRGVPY
T2 sequence (O75909 whole entry partner): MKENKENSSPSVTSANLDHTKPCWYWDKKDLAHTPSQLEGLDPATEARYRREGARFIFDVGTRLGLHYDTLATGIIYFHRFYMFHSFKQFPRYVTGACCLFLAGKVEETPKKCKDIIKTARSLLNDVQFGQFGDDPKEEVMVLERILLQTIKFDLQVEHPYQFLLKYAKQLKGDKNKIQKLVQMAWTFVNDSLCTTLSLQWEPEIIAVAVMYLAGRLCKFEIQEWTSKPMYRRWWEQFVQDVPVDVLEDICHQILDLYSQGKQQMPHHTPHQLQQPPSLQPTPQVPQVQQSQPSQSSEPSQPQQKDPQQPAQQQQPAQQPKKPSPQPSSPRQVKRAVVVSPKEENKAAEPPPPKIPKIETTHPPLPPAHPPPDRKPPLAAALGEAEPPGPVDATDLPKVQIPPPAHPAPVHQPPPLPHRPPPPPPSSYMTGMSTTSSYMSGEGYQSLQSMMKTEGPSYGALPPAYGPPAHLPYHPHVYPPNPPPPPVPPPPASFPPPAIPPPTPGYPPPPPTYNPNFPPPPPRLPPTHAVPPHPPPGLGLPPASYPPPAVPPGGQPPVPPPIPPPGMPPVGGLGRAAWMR
Procedure, shortened: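 DC50 is the degrader concentration that halves nuclear CDK12 immunofluorescence relative to controls, measured by high-content imaging. CAL-120 cells were exposed to compound for 24 h at 37 °C before PFA fixation, and signal was normalized to DMSO and control wells.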

[2] = target: T3, CYCLIN K (nuclear staining in CAL-120 cells) (Homo sapiens, UniProt O75909); test: CYCLIN K nuclear protein level: immunofluorescence high content analysis (CAL-120); format: cell-based; settings: 24 h, 50% reduction of nuclear CCNK staining intensity, median, read-out: CYCLIN K degradation IF, DC50-[mol/l] (median)
T3 construct: endogenous in cells; host or cells: CAL-120 human breast cancer cells (DSMZ ACC 459)
T3 sequence (O75909 whole entry): as the sequence (O75909 whole entry partner) above
T3 sequence (Q9NYV4 whole entry partner): as the sequence (Q9NYV4 whole entry) above
Procedure, shortened: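 Readout is automated confocal image analysis of nuclear cyclin K immunofluorescence (Hoechst nuclei) after PFA fixation. Cells were CAL-120, exposed to compound dose-response 24 h at 37 °C; values are DC50 for halving nuclear CCNK signal relative to DMSO and control wells.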

[3] = system: BRCA1 mRNA expression in MDA-MB-231 cells; test: qRT-PCR assay: BRCA1 mRNA expression in MDA-MB-231; format: cell-based, human; settings: Homo sapiens, MDA-MB-231, Inhibition of BRCA1 mRNA expression in MDA-MB-231 cells; median; read-out: RTqPCR-MDA-MB-231, IC50, BRCA1 (median)
Procedure, shortened: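 BRCA1 transcript by RT-qPCR relative to GAPDH, from 600 ng RNA converted to cDNA. MDA-MB-231 cells plated at 200,000/well received test compound continuously for 24 h, starting 24 h post-seeding.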

| Structure (SMILES) | IC50 (CDK9/CycT1) [nM] | DC50 [1] [nM] | (IC50 CDK12 high ATP) to (Degradation DC50 CDK12) ratio [1] | DC50 [2] [nM] | IC50 [3] [nM] |
| --- | --- | --- | --- | --- | --- |
| Brc1cnn2c(NCc3nc4ccccc4[nH]3)nc(N3C[C@H]4CCCN[C@H]4C3)nc12 [Example 199, N-[(1H-benzimidazol-2-yl)methyl]-8-bromo-2-[(4aR, 7aR)-octahydro-6H-pyrrolo[3,4-b]pyridin-6-yl]pyrazolo[1,5-a][1,3,5]triazin-4-amine] | > 20000 | 5.55 | 2661 | 2.32 | 47.9 |
| Fc1cccc2[nH]c(CNc3nc(N4CCNCC4)nc4c(C5CC5)cnn34)nc12 [Example 182, 8-cyclopropyl-N-[(4-fluoro-1H-benzimidazol-2-yl)methyl]-2-(piperazin-1-yl)pyrazolo[1,5-a][1,3,5]triazin-4-amine] | > 20000 | 0.727 | 2813 | 0.103 | 3.32 |
| OC1CCN(c2nc(NCc3nc4ccccc4[nH]3)n3ncc(Br)c3n2)CC1 [Example 17, 1-(4-{[(1H-benzimidazol-2-yl)methyl]amino}-8-bromopyrazolo[1,5-a][1,3,5]triazin-2-yl)piperidin-4-ol] | > 20000 | 5.98 | 957 | 4.63 | 12 |
| Fc1ccc2[nH]c(CNc3nc(N4C[C@@H]5C[C@H]4CO5)nc4c(C5CC5)cnn34)nc2c1F [Example 173, 8-cyclopropyl-N-[(4,5-difluoro-1H-benzimidazol-2-yl)methyl]-2-[(1S,4S)-2-oxa-5-azabicyclo[2.2.1]heptan-5-yl]pyrazolo[1,5-a][1,3,5]triazin-4-amine] | > 20000 | 1.74 | >11498 | 1.03 | 4.58 |
| Clc1cnn2c(NCc3nc4ccccc4[nH]3)nc(N3CCOCC3)nc12 [Example 15, N-[(1H-benzimidazol-2-yl)methyl]-8-chloro-2-(morpholin-4-yl)pyrazolo[1,5-a][1,3,5]triazin-4-amine] | > 20000 | 5.05 | 1191 | 4.51 | 10 |
| O[C@H]1C[C@@H](Nc2nc(NCc3nc4ccccc4[nH]3)n3ncc(Br)c3n2)C1 [Example 234, cis-3-[(4-{[(1H-benzimidazol-2-yl)methyl]amino}-8-bromopyrazolo[1,5-a][1,3,5]triazin-2-yl)amino]cyclobutan-1-ol] | > 20000 | 10.3 | 472 | 1.74 | 5.76 |
| CC(C)(O)CNc1nc(NCc2nc3ccccc3[nH]2)n2ncc(Br)c2n1 [Example 229, 1-[(4-{[(1H-benzimidazol-2-yl)methyl]amino}-8-bromopyrazolo[1,5-a][1,3,5]triazin-2-yl)amino]-2-methylpropan-2-ol] | > 20000 | 6.38 | 862 | 0.39 | 10.8 |
| CN1C[C@H]2C[C@@H]1CN2c1nc(NCc2nc3ccccc3[nH]2)n2ncc(Br)c2n1 [Example 218, N-[(1H-benzimidazol-2-yl)methyl]-8-bromo-2-[(1R,4R)-5-methyl-2,5-diazabicyclo[2.2.1]heptan-2-yl]pyrazolo[1,5-a][1,3,5]triazin-4-amine] | > 20000 | 10.5 | >1900 | 0.685 | 12.3 |
| CN1CC2CN(c3nc(NCc4nc5ccccc5[nH]4)n4ncc(Br)c4n3)CC2C1 (centres unmarked) [Example 240, N-(1H-benzimidazol-2-ylmethyl)-8-bromo-2-(2-methyl-1,3,3a,4,6,6a-hexahydropyrrolo[3,4-c]pyrrol-5-yl)pyrazolo[1,5-a][1,3,5]triazin-4-amine] | > 20000 | 5.56 | >3596 | 1.09 | 7.69 |
| Fc1ccc2[nH]c(CNc3nc(N4CCNCC4)nc4c(C5CC5)cnn34)nc2c1 [Example 190, 8-cyclopropyl-N-[(5-fluoro-1H-benzimidazol-2-yl)methyl]-2-(piperazin-1-yl)pyrazolo[1,5-a][1,3,5]triazin-4-amine] | > 20000 | 0.553 | 11161 | 0.268 | 3.27 |
| Fc1ccc2[nH]c(CNc3nc(N4C[C@@H]5C[C@H]4CO5)nc4c(C5CC5)cnn34)nc2c1 [Example 185, 8-cyclopropyl-N-[(5-fluoro-1H-benzimidazol-2-yl)methyl]-2-[(1S,4S)-2-oxa-5-azabicyclo[2.2.1]heptan-5-yl]pyrazolo[1,5-a][1,3,5]triazin-4-amine] | > 20000 | 2.49 | >7872 | 2 | 26.6 |
| COc1cccc2[nH]c(CNc3nc(N4C[C@@H]5CCCN[C@@H]5C4)nc4c(C5CC5)cnn34)nc12 [Example 214, 8-cyclopropyl-N-[(4-methoxy-1H-benzimidazol-2-yl)methyl]-2-[(4aS,7aS)-octahydro-6H-pyrrolo[3,4-b]pyridin-6-yl]pyrazolo[1,5-a][1,3,5]triazin-4-amine] | > 20000 | 3.92 | 2062 | 0.347 | 19.3 |
| OC[C@@H]1CCCCN1c1nc(NCc2nc3cc(F)ccc3[nH]2)n2ncc(C3CC3)c2n1 [Example 191, [(2S)-1-(8-cyclopropyl-4-{[(5-fluoro-1H-benzimidazol-2-yl)methyl]amino}pyrazolo[1,5-a][1,3,5]triazin-2-yl)piperidin-2-yl]methanol] | 7340 | 0.606 | 548 | 0.187 | 2.18 |
| Fc1ccc2[nH]c(CNc3nc(N4C[C@@H]5CCCN[C@@H]5C4)nc4c(C5CC5)cnn34)nc2c1F [Example 171, 8-cyclopropyl-N-[(4,5-difluoro-1H-benzimidazol-2-yl)methyl]-2-[(4aS,7aS)-octahydro-6H-pyrrolo[3,4-b]pyridin-6-yl]pyrazolo[1,5-a][1,3,5]triazin-4-amine] | > 20000 | 2 | 3278 | 0.981 | 1.03 |
| CC1CN(c2nc(NCc3nc4ccccc4[nH]3)n3ncc(C(C)C)c3n2)CCO1 (racemic) [Example 11, (rac)-N-[(1H-benzimidazol-2-yl)methyl]-2-[2-methylmorpholin-4-yl]-8-(propan-2-yl)pyrazolo[1,5-a][1,3,5]triazin-4-amine] | > 20000 | 12.6 | 251 | 14.5 | 31.8 |
| COc1ccc2[nH]c(CNc3nc(N4C[C@@H](C)N[C@@H](C)C4)nc4c(Br)cnn34)nc2c1 [Example 205, 8-bromo-2-[(3R,5S)-3,5-dimethylpiperazin-1-yl]-N-[(5-methoxy-1 H-benzimidazol-2-yl)methyl]pyrazolo[1,5-a][1,3,5]triazin-4-amine] | > 20000 | 0.506 | 15749 | 0.279 | 1.81 |
| Fc1cccc2[nH]c(CNc3nc(N4C[C@@H]5C[C@H]4CO5)nc4c(C5CC5)cnn34)nc12 [Example 183, 8-cyclopropyl-N-[(4-fluoro-1H-benzimidazol-2-yl)methyl]-2-[(1S,4S)-2-oxa-5-azabicyclo[2.2.1]heptan-5-yl]pyrazolo[1,5-a][1,3,5]triazin-4-amine] | > 20000 | 1.65 | 6199 | 1.64 | 4.17 |
| Brc1cnn2c(NCc3nc4ccccc4[nH]3)nc(N3CCC4(CCCN4)C3)nc12 (centres unmarked) [Example 215, N-(1H-benzimidazol-2-ylmethyl)-8-bromo-2-(1,7-diazaspiro[4.4]nonan-7-yl)pyrazolo[1,5-a][1,3,5]triazin-4-amine] | > 20000 | 7.88 | >2537 | 6.49 | 131 |
| Fc1ccc2[nH]c(CNc3nc(N4CCOCC4)nc4c(C5CC5)cnn34)nc2c1F [Example 172, 8-cyclopropyl-N-[(4,5-difluoro-1H-benzimidazol-2-yl)methyl]-2-(morpholin-4-yl)pyrazolo[1,5-a][1,3,5]triazin-4-amine] | > 20000 | 1.1 | 581 | 0.894 | 0.626 |
